Measured values: US9724352B2, “Pyrrolo[2,1-F[1,2,4]triazine compounds, preparation methods and applications thereof” (Shanghai Institute of Materia Medica, Chinese Academy of …, priority 2012, dated 2017)

How the values were obtained:
[1] = test system: human esophagus cancer KYSE 410 xenograft; experiment: Growth of KYSE 410 xenograft subcutaneously transplanted in nude mouse; format: in vivo; settings: for Relative tumor proliferation rate T/C: 50 mg/kg p.o. once every day
Method: Well-developed tumors in nude mice were cut into 1.5 mm3 fragments and transplanted s.c. into the right flank of nude mice under sterile conditions. The diameters of subcutaneously transplanted tumours in nude mice were measured with a vernier calipe. When the tumour reached a volume 170 mm3, the mice were randomly assigned into two treatment groups: CYH33 50 mg/kg group or BYL-719 50 mg/kg group. Control groups were given the same amount of normal saline, and treatment groups received tested compounds (p.o). Compounds were administered orally once every day for 3 weeks. Evaluation index of antitumor activity was relative tumor proliferation rate T/C (%), the calculation formula of which was as follows: T/C (%)=(TRTV/CRTV)×100%, TRTV:RTV of treatment group; CRTV:RTV of negative control group.

KYSE450 = experiment: Proliferation of human esophagus cancer cells; format: cell-based
Text: (§1) Compounds BYL719 (shown below), CYH33 (compound I-33) and I-27 were selected to test their activity on the proliferation of 11 species of human esophagus cancer cells.
(§2) The results reported in FIG. 3 were the average GI50 value and SD value of three experiments. The results were arranged according to the GI50 value of CYH33.

COLO680N = experiment: Proliferation of human esophagus cancer cells; format: cell-based; settings: COLO-680N
Text: as §1, §2

KYSE150 = experiment: Proliferation of human esophagus cancer cells; format: cell-based
Text: as §1, §2

KYSE70 = experiment: Proliferation of human esophagus cancer cells; format: cell-based
Text: as §1, §2

KYSE140 = experiment: Proliferation of human esophagus cancer cells; format: cell-based
Text: as §1, §2

KYSE410 = experiment: Proliferation of human esophagus cancer cells; format: cell-based
Text: as §1, §2

KYSE510 = experiment: Proliferation of human esophagus cancer cells; format: cell-based
Text: as §1, §2

KYSE30 = experiment: Proliferation of human esophagus cancer cells; format: cell-based
Text: as §1, §2

KYSE180 = experiment: Proliferation of human esophagus cancer cells; format: cell-based
Text: as §1, §2

KYSE2 = experiment: Proliferation of human esophagus cancer cells; format: cell-based
Text: as §1, §2

Detroit 562 = experiment: Proliferation of human esophagus cancer cells; format: cell-based
Text: as §1, §2

PI3Kα = PI3Kα (Homo sapiens (Human), UniProt P42336); experiment: Inhibition on PI3K kinase activity (Kinase-Glo Plus luminescent assay); format: biochemical; settings: 2 μM ATP, 1 hour at room temperature
Method: The activity of purified kinase was detected with Kinase-Glo® Plus kinase luminescent assay by measuring the amount of the remaining […] in the solution after the kinase reaction was completed. […] After reaction was performed for 1 hour at room temperature, 10 μL of Kinase Glo-Plus mixture was added and incubated for 1 hour to quench the reaction.

[2] = test system: human rhabdomyosarcoma Rh30 cells; experiment: Proliferation of Rh30 cells (sulforhodamine B); format: cell-based; settings: for IC50: Homo sapiens, Rh30, 72 h, read-out: IC50 against proliferation of Rh30 cells
Method: Rh30 cells were seeded in a 96-well plate at 3000 cells/well. After the cells adhered, tested compounds at concentration of 10, 3, 1, 0.3, or 0.1 μM were added, and incubated for 72 h. The culture media were discarded and cells were fixed with trichloroacetic acid. After washed with distilled water for five times and dried, sulfonylrhodamine B was added. After washed with 1% glacial acetic acid for five times and dried, trihydroxymethylaminomethane buffer was added. OD value was measured by using a microplate reader at a wavelength of 560 nm.

[3] = KYSE-450, KYSE450, 1st experiment
[4] = KYSE-450, KYSE450, 2nd experiment
[5] = KYSE-450, KYSE450, 3rd experiment
[6] = KYSE-450, KYSE450, mean of three experiments
[7] = KYSE-150, KYSE150, 1st experiment
[8] = KYSE-150, KYSE150, 2nd experiment
[9] = KYSE-150, KYSE150, 3rd experiment
[10] = KYSE-150, KYSE150, mean of three experiments
[11] = KYSE-70, KYSE70, 1st experiment
[12] = KYSE-70, KYSE70, 2nd experiment
[13] = KYSE-70, KYSE70, 3rd experiment
[14] = KYSE-70, KYSE70, mean of three experiments
[15] = KYSE-140, KYSE140, 1st experiment
[16] = KYSE-140, KYSE140, 2nd experiment
[17] = KYSE-140, KYSE140, 3rd experiment
[18] = KYSE-140, KYSE140, mean of three experiments
[19] = KYSE-410, KYSE410, 1st experiment
[20] = KYSE-410, KYSE410, 2nd experiment
[21] = KYSE-410, KYSE410, 3rd experiment
[22] = KYSE-410, KYSE410, mean of three experiments
[23] = KYSE-510, KYSE510, 1st experiment
[24] = KYSE-510, KYSE510, 2nd experiment
[25] = KYSE-510, KYSE510, 3rd experiment
[26] = KYSE-510, KYSE510, mean of three experiments
[27] = KYSE-30, KYSE30, 1st experiment
[28] = KYSE-30, KYSE30, 2nd experiment
[29] = KYSE-30, KYSE30, 3rd experiment
[30] = KYSE-30, KYSE30, mean of three experiments
[31] = KYSE-180, KYSE180, 1st experiment
[32] = KYSE-180, KYSE180, 2nd experiment
[33] = KYSE-180, KYSE180, 3rd experiment
[34] = KYSE-180, KYSE180, mean of three experiments
[35] = KYSE2, mean of three experiments
[36] = Detroit 562, Detroit 562, 1st experiment
[37] = Detroit 562, Detroit 562, 2nd experiment
[38] = Detroit 562, Detroit 562, 3rd experiment
[39] = Detroit 562, Detroit 562, mean of three experiments

PI3Kα, sequence (P42336 whole entry): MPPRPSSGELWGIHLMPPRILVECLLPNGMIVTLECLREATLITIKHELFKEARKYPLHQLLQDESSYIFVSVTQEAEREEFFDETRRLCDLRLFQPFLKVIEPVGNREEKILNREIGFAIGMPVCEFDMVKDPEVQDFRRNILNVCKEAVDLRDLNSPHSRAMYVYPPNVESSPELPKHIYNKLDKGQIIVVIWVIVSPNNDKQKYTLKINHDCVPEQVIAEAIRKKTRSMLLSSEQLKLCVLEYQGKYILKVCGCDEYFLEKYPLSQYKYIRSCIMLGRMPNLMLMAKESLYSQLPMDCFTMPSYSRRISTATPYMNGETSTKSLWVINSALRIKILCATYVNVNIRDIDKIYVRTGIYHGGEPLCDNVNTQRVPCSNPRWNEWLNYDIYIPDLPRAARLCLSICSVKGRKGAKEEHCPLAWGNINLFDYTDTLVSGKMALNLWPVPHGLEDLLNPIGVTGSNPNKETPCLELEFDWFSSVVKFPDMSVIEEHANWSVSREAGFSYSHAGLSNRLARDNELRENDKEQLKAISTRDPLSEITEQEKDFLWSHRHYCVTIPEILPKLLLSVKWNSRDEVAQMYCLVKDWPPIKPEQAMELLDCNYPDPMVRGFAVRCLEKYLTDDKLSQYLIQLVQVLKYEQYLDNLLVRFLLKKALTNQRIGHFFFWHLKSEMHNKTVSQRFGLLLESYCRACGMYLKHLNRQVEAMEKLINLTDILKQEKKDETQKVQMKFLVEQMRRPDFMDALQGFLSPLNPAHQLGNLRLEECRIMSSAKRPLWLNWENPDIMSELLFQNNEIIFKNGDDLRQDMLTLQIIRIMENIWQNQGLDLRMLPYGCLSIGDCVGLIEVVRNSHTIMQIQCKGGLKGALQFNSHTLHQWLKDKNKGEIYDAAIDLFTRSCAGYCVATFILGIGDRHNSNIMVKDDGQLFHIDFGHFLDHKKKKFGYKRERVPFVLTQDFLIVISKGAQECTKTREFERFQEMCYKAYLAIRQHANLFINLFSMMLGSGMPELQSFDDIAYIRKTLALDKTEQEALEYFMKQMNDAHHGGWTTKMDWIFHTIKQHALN
PI3Kα, sequence (P27986 whole entry partner): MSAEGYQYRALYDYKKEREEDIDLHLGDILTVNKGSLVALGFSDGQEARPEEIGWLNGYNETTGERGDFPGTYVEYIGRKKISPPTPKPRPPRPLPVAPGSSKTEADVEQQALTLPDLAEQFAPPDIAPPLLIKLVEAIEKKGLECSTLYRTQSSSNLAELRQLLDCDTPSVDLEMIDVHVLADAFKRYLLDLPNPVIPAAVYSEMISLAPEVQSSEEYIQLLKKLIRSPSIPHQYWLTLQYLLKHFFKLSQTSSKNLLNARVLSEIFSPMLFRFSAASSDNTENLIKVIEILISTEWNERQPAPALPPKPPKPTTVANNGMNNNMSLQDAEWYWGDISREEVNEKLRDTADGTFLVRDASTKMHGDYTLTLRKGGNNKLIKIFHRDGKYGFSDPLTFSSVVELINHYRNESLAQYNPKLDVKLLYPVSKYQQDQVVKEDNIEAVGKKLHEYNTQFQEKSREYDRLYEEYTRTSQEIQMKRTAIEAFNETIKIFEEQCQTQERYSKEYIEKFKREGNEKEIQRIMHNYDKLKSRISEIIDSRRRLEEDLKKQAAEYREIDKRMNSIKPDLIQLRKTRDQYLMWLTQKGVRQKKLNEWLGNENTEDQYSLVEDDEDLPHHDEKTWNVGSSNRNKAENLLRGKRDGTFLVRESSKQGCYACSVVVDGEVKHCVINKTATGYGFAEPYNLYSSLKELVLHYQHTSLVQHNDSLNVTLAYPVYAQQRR

Cc1nc(NC(=O)N2CCC[C@H]2C(N)=O)sc1-c1ccnc(C(C)(C)C(F)(F)F)c1 [BYL719, reference compound]
growth of KYSE 410 xenograft (in words) ([1]; 50 mg/kg p.o. every day for 3 weeks): significantly slowed down | Relative tumor proliferation rate T/C ([1]; d0): 100.00% | Relative tumor proliferation rate T/C ([1]; d3): 56.95% | Relative tumor proliferation rate T/C ([1]; d7): 31.23% | Relative tumor proliferation rate T/C ([1]; d10): 24.77% | Relative tumor proliferation rate T/C ([1]; d14): 22.12% | Relative tumor proliferation rate T/C ([1]; d17): 19.32% | Relative tumor proliferation rate T/C ([1]; d21): 15.37% | GI50 (KYSE450; [3]): 8590 nM | GI50 (KYSE450; [4]): 10000 nM | GI50 (KYSE450; [5]): 8800 nM | GI50 (KYSE450; [6]): 9130 nM | GI50 (COLO680N; 1st experiment): 6120 nM | GI50 (COLO680N; 2nd experiment): 6050 nM | GI50 (COLO680N; 3rd experiment): 6100 nM | GI50 (COLO680N; mean of three experiments): 6090 nM | GI50 (KYSE150; [7]): 1640 nM | GI50 (KYSE150; [8]): 2110 nM | GI50 (KYSE150; [9]): 1670 nM | GI50 (KYSE150; [10]): 1810 nM | GI50 (KYSE70; [11]): 452 nM | GI50 (KYSE70; [12]): 450 nM | GI50 (KYSE70; [13]): 478 nM | GI50 (KYSE70; [14]): 460 nM | GI50 (KYSE140; [15]): 2450 nM | GI50 (KYSE140; [16]): 3610 nM | GI50 (KYSE140; [17]): 2740 nM | GI50 (KYSE140; [18]): 2930 nM | GI50 (KYSE410; [19]): 1890 nM | GI50 (KYSE410; [20]): 816 nM | GI50 (KYSE410; [21]): 874 nM | GI50 (KYSE410; [22]): 1190 nM | GI50 (KYSE510; [23]): 1530 nM | GI50 (KYSE510; [24]): 835 nM | GI50 (KYSE510; [25]): 1030 nM | GI50 (KYSE510; [26]): 1130 nM | GI50 (KYSE30; [27]): 10000 nM | GI50 (KYSE30; [28]): 6830 nM | GI50 (KYSE30; [29]): 10000 nM | GI50 (KYSE30; [30]): 8940 nM | GI50 (KYSE180; [31]): 354 nM | GI50 (KYSE180; [32]): 740 nM | GI50 (KYSE180; [33]): 553 nM | GI50 (KYSE180; [34]): 549 nM | GI50 (KYSE2; KYSE2, 1st experiment): 1440 nM | GI50 (KYSE2; KYSE2, 2nd experiment): 911 nM | GI50 (KYSE2; KYSE2, 3rd experiment): 1870 nM | GI50 (KYSE2; [35]): 1410 nM | GI50 (Detroit 562; [36]): 1970 nM | GI50 (Detroit 562; [37]): 2300 nM | GI50 (Detroit 562; [38]): 2380 nM | GI50 (Detroit 562; [39]): 2220 nM

COC(=O)Nc1cc(C(F)(F)F)c(-c2nc(N3CCOC[C@@H]3C)c3cc(CN4CCN(S(C)(=O)=O)CC4)cn3n2)cn1 [Compound I-35, (S)-methyl (5-(4-(3-methylmorpholino)-6-((4-(methylsulfonyl)piperazin-1-yl)methyl)pyrrolo[2,1-f][1,2,4]triazin-2-yl)-4-(trifluoromethyl)pyridin-2-yl)carbamate]
IC50 (PI3Kα): 5.67 nM | IC50 [2]: 470 nM

CS(=O)(=O)N1CCN(Cc2cc3c(N4CCOCC4)nc(-c4cnc(N)cc4C(F)(F)F)nn3c2)CC1 [Compound I-27, 5-(6-((4-(methylsulfonyl)piperazin-1-yl)methyl)-4-morpholinopyrrolo [2,1-f][1,2,4]triazin-2-yl)-4-(trifluoromethyl)pyridin-2-amine]
IC50 (PI3Kα): 8.37 nM | GI50 (KYSE450; [3]): 1230 nM | GI50 (KYSE450; [4]): 1000 nM | GI50 (KYSE450; [5]): 932 nM | GI50 (KYSE450; [6]): 1050 nM | GI50 (COLO680N; 1st experiment): 959 nM | GI50 (COLO680N; 2nd experiment): 915 nM | GI50 (COLO680N; 3rd experiment): 917 nM | GI50 (COLO680N; mean of three experiments): 930 nM | GI50 (KYSE150; [7]): 202 nM | GI50 (KYSE150; [8]): 276 nM | GI50 (KYSE150; [9]): 150 nM | GI50 (KYSE150; [10]): 209 nM | GI50 (KYSE70; [11]): 109 nM | GI50 (KYSE70; [12]): 59 nM | GI50 (KYSE70; [13]): 112 nM | GI50 (KYSE70; [14]): 93 nM | GI50 (KYSE140; [15]): 898 nM | GI50 (KYSE140; [16]): 638 nM | GI50 (KYSE140; [17]): 792 nM | GI50 (KYSE140; [18]): 776 nM | GI50 (KYSE410; [19]): 468 nM | GI50 (KYSE410; [20]): 959 nM | GI50 (KYSE410; [21]): 229 nM | GI50 (KYSE410; [22]): 552 nM | GI50 (KYSE510; [23]): 247 nM | GI50 (KYSE510; [24]): 390 nM | GI50 (KYSE510; [25]): 204 nM | GI50 (KYSE510; [26]): 280 nM | GI50 (KYSE30; [27]): 2350 nM | GI50 (KYSE30; [28]): 1100 nM | GI50 (KYSE30; [29]): 1070 nM | GI50 (KYSE30; [30]): 1510 nM | GI50 (KYSE180; [31]): 100 nM | GI50 (KYSE180; [32]): 169 nM | GI50 (KYSE180; [33]): 77 nM | GI50 (KYSE180; [34]): 115 nM | GI50 (KYSE2; KYSE2, 1st experiment): 255 nM | GI50 (KYSE2; KYSE2, 2nd experiment): 165 nM | GI50 (KYSE2; KYSE2, 3rd experiment): 310 nM | GI50 (KYSE2; [35]): 243 nM | GI50 (Detroit 562; [36]): 580 nM | GI50 (Detroit 562; [37]): 527 nM | GI50 (Detroit 562; [38]): 607 nM | GI50 (Detroit 562; [39]): 571 nM | IC50 [2]: 730 nM

CS(=O)(=O)N1CCN(Cc2cc3c(N4CCOCC4)nc(-c4cnc(NC(=O)Nc5ccc(F)cc5)cc4C(F)(F)F)nn3c2)CC1 [Compound I-28, 1-(4-fluorophenyl)-3-(5-(6-((4-(methylsulfonyl)piperazin-1-yl)methyl)-4-morpholinopyrrolo[2,1-f][1,2,4]triazin-2-yl)-4-(trifluoromethyl)pyridin-2-yl)urea]
IC50 (PI3Kα): 9.3 nM | inhibitory activity on Rh30 cell proliferation (in words) ([2]; 72 h): tens of nanomolar | IC50 [2]: 74 nM

CN1CCN(C(=O)c2ccc(NC(=O)Nc3ccc(-c4nc(N5CCOCC5)c5cc(CN6CCN(S(C)(=O)=O)CC6)cn5n4)cc3)cc2)CC1 [Compound I-22, 1-(4-(4-methylpiperazine-carbonyl)phenyl)-3-(4-(6-((4-(methylsulfonyl)piperazin-1-yl)methy 1)-4-morpholinopyrrolo[2,1-f][1,2,4]triazin-2-yl)phenyl)urea]
IC50 (PI3Kα): 9.59 nM | IC50 [2]: 540 nM

CCOC(=O)Nc1cc(C(F)(F)F)c(-c2nc(N3CCOCC3)c3cc(CN4CCN(S(C)(=O)=O)CC4)cn3n2)cn1 [Compound I-32, Ethyl (5-(6-((4-(methylsulfonyl)piperazin-1-yl)methyl)-4-morpholinopyrrolo[2,1-f-][1,2,4]triazin-2-yl)-4-(trifluoromethyl)pyridin-2-yl)carbamate]
IC50 (PI3Kα): 7.15 nM
